Assay results published in patent US20090105202A1 (priority 2005, published 2009).
Read-outs that look alike come from different tables or passages of the source.

What was measured:
[1] = test system: HCT116 cells; format: cell-based; parameters: unit not given here
[2] = test system: HCT116 cells; settings: read-out: IC50 (the drug concentration producing 50% inhibition of colony formation), drugs 72 hours, colonies counted after 8 days
Protocol: To test the effect of androsterone derivatives of this example, HCT116cells (colorectal carcinoma cells) were plated in 60 mm Petri dishes containing 2.7 ml of medium (modified McCoy's 5a medium containing 10% fetal bovine serum and 100 units/ml penicillin and 100 µg/ml streptomycin). The cells were incubated in a CO2 incubator at 37° C. for 5 hours for attachment to the bottom of Petri dishes. Drugs were made up fresh in medium at ten times the final concentration, and then 0.3 ml of tins stock solution was added to the 2.7 ml of medium containing 5% bovine calf serum (BCS) in the dish. The cells were then incubated with drugs for 72 hours at 37° C. At the end of incubation the drug-containing media were decanted, the dishes were rinsed with 4 ml of Hank's Balance Salt Solution (HBSS). […] The cell colonies stained with methylene blue (0.5% in ethanol) were counted using colony counter after incubation for 8 days for HCT116 cells.

Row | Structure (SMILES) | In vitro antitumor activity against HCT116 cells ([1]; 10 μM) | IC50 [2] | In vitro antitumor activity against HCT116 cells ([1]; 1 μM) | In vitro antitumor activity against HCT116 cells ([1]; 100 nM)
1 | O=c1[nH]cc(F)c(=O)[nH]1 [5-FU, reference compound] | 17.00 | – | – | –
2 | CC[C@@]1(OC(=O)COc2ccc(C(=O)O[C@@H]3CC[C@@]4(C)[C@@H](CC[C@@H]5[C@@H]4CC[C@]4(C)C(=O)CC[C@@H]54)C3)cc2)C(=O)OCc2c1cc1n(c2=O)Cc2cc3ccccc3nc2-1 [compound 010216, Camptothecin-20S-O-(4-carboxyphenexyacetate) linked with androsterone] | – | 2.5 nM | – | –
3 | CC[C@@]1(OC(=O)COc2ccc(C(=O)O[C@H]3CC[C@@]4(C)[C@@H](CC[C@@H]5[C@@H]4CC[C@]4(C)C(=O)CC[C@@H]54)C3)cc2)C(=O)OCc2c1cc1n(c2=O)Cc2cc3ccccc3nc2-1 [compound 0103021, Camptothecin-20S-O-(4-carboxyphenoxyacetate) linked with epiandrosterone] | – | 3.5 nM | – | –
4 | CC(ON=C1c2cc([N+](=O)[O-])cc([N+](=O)[O-])c2-c2c1ccc([N+](=O)[O-])c2[N+](=O)[O-])C(=O)O[C@H]1CC[C@@]2(C)[C@@H](CC[C@@H]3[C@@H]2CC[C@]2(C)C(=O)CC[C@@H]32)C1 (stereo partly drawn) [compound 991022, (3β,5α)-3-Hydroxyandrostan-17-one (+)-2-(2,4,5,6-tetranitro-9-flourenylidene-aminooxy)proprionate] | 0 | – | 100 | –
5 | C[C@]12CC[C@H](OC(=O)c3ccc([N+](=O)[O-])o3)C[C@@H]1CC[C@@H]1[C@@H]2CC[C@]2(C)C(=O)CC[C@@H]12 [compound 991027, (3β,5α)-3-Hydroxyandrostan-17-one 5-nitro-2-furoate] | 0 | – | 0 | 4.00
6 | C[C@]12CC[C@H](OC(=O)CCC(=O)OCc3ccc4c(c3)C(=O)c3ccccc3C4=O)C[C@@H]1CC[C@@H]1[C@@H]2CC[C@]2(C)C(=O)CC[C@@H]12 [compound 991120, 1-((3β,5α)-3-Hydroxyandrostan-17-one)-4-(2-(hydroxymethyl)anthraquinone)-succinate] | 0 | – | 100 | –
